Literature values, collected in patent US10980792B2, “Formulations of Cabozantinib” (Zhuhai Beihai Biotech Co., Ltd., priority 2016, dated 2021).

How the values were obtained:
[1] = tested on: human plasma

Question: Which results are given for COc1cc2nccc(Oc3ccc(NC(=O)C4(C(=O)Nc5ccc(F)cc5)CC4)cc3)c2cc1OC [Cabozantinib, cabozantinib]?
Answer: solubility in water: practically insoluble; protein bound in human plasma [1]: ≥ 99.7%
